Biological target: T1, human mGlu5a receptor (Homo sapiens, UniProt P41594)
T1 construct: expressed in transfected cells
Assay: Intracellular Ca2+ mobilization assay (mGlu5 PAM)
Type: cell-based
Conditions: for EC50: HEK-293 cells stably transfected with human mGlu5a, L-glutamate added at EC20 after 10-30 min pre-incubation with test compound, read-out: EC50 (nM) mGlu5PAM; for Emax: maximal response in % of the maximal stimulatory effect obtained with saturating concentrations of L-glutamate, read-out: Eff. (%)
Experimental: A monoclonal HEK-293 cell line stably transfected with a cDNA encoding for the human mGlu5a receptor was generated; for the work with mGlu5 Positive Allosteric Modulators (PAMs), a cell line with low receptor expression levels and low constitutive receptor activity was selected to allow the differentiation of agonistic versus PAM activity. Cells were cultured according to standard protocols (Freshney, 2000) in Dulbecco's Modified Eagle Medium with high glucose supplemented with 1 mM glutamine, 10% (vol/vol) heat-inactivated bovine calf serum, Penicillin/Streptomycin, 50 μg/ml hygromycin and 15 μg/ml blasticidin (all cell culture reagents and antibiotics from Invitrogen, Basel, Switzerland).
About 24 hrs before an experiment, 5×10^4 cells/well were seeded in poly-D-lysine coated, black/clear-bottomed 96-well plates. The cells were loaded with 2.5 μM Fluo-4AM in loading buffer (1×HBSS, 20 mM HEPES) for 1 hr at 37° C. and washed five times with loading buffer. The cells were transferred into a Functional Drug Screening System 7000 (Hamamatsu, Paris, France), and 11 half logarithmic serial dilutions of test compound at 37° C. were added and the cells were incubated for 10-30 min. with on-line recording of fluorescence. Following this pre-incubation step, the agonist L-glutamate was added to the cells at a concentration corresponding to EC20 (typically around 80 μM) with on-line recording of fluorescence; in order to account for day-to-day variations in the responsiveness of cells, the EC20 of glutamate was determined immediately ahead of each experiment by recording of a full dose-response curve of glutamate.
Responses were measured as peak increase in fluorescence minus basal (i.e. fluorescence without addition of L-glutamate), normalized to the maximal stimulatory effect obtained with saturating concentrations of L-glutamate. Graphs were plotted with the % maximal stimulatory using XLfit, a curve fitting program that iteratively plots the data using Levenburg Marquardt algorithm. The single site competition analysis equation used was y=A+((B−A)/(1+((x/C)D))), where y is the % maximal stimulatory effect, A is the minimum y, B is the maximum y, C is the EC50, x is the log 10 of the concentration of the competing compound and D is the slope of the curve (the Hill Coefficient). From these curves the EC50 (concentration at which half maximal stimulation was achieved), the Hill coefficient as well as the maximal response in % of the maximal stimulatory effect obtained with saturating concentrations of L-glutamate were calculated.
A depression of the signal observed after addition of the EC20 concentration of L-glutamate was indicative of an inhibitory activity of the test compound.

T1 sequence (P41594 21-1180 isoform P41594-2 limits assumed): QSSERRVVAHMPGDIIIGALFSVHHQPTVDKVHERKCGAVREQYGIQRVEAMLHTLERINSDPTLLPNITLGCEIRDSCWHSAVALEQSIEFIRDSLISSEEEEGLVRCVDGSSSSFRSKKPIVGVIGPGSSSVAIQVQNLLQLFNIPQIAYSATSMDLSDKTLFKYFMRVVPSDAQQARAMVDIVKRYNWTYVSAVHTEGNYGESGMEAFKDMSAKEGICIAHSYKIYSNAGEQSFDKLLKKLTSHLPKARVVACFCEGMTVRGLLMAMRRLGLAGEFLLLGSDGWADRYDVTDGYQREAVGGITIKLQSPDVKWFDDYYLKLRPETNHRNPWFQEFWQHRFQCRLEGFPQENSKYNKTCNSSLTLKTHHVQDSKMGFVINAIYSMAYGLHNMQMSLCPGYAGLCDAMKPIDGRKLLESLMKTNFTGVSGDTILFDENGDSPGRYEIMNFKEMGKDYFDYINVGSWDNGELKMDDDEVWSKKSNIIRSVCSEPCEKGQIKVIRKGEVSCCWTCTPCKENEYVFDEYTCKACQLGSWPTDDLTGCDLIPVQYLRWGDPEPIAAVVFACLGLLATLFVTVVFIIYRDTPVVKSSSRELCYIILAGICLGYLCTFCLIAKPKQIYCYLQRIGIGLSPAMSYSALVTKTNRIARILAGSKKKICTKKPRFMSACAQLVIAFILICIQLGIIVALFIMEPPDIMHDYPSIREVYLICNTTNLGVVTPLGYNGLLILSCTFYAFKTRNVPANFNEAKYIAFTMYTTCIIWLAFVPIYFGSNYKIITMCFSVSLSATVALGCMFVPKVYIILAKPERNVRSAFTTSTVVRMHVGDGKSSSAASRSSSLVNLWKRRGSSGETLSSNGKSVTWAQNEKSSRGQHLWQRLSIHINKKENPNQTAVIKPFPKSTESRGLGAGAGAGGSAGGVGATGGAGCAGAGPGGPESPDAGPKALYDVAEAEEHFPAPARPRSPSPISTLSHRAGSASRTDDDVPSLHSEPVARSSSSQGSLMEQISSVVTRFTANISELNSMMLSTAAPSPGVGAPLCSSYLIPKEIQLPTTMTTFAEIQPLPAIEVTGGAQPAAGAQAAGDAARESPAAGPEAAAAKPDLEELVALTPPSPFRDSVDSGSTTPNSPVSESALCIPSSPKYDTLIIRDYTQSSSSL

Structure (SMILES): Cc1cc2ncc(C#Cc3ccccc3)cn2n1 [Example 2, 2-Methyl-6-phenylethynyl-pyrazolo[1,5-a]pyrimidine]
- EC50: 49 nM
- Emax: 99%

Structure (SMILES): C(#Cc1cnc2cc(C3CCC3)nn2c1)c1ccccc1 [Example 18, 2-Cyclobutyl-6-phenylethynyl-pyrazolo[1,5-a]pyrimidine]
- EC50: 182 nM
- Emax: 102%

Structure (SMILES): Cc1cc2ncc(C#Cc3ccc(F)cc3)cn2n1 [Example 5, 6-(4-Fluoro-phenylethynyl)-2-methyl-pyrazolo[1,5-a]pyrimidine]
- EC50: 78 nM
- Emax: 74%

Structure (SMILES): CC(C)(C)c1cc2ncc(C#Cc3ccc(Cl)cc3)cn2n1 [Example 20, 2-tert-Butyl-6-(4-chloro-phenylethynyl)-pyrazolo[1,5-a]pyrimidine]
- EC50: 400 nM
- Emax: 89%

Structure (SMILES): CC(C)(C)c1cc2ncc(C#Cc3ccccc3N)cn2n1 [Example 36, 2-(2-tert-Butyl-pyrazolo[1,5-a]pyrimidin-6-ylethynyl)-phenylamine]
- EC50: 155 nM
- Emax: 88%

Structure (SMILES): C(#Cc1cnc2cc(C3CCOCC3)nn2c1)c1ccccc1 [Example 26, 6-Phenylethynyl-2-(tetrahydro-pyran-4-yl)-pyrazolo[1,5-a]pyrimidine]
- EC50: 472 nM
- Emax: 124%

Structure (SMILES): CC(C)(C)c1cc2ncc(C#Cc3cncnc3)cn2n1 [Example 24, 2-tert-Butyl-6-pyrimidin-5-ylethynyl-pyrazolo[1,5-a]pyrimidine]
- EC50: 181 nM
- Emax: 68%

Structure (SMILES): Fc1cccc(C#Cc2cnc3nc(N4CCOCC4)nn3c2)c1 [Example 49, 6-(3-Fluoro-phenylethynyl)-2-morpholin-4-yl-[1,2,4]triazolo[1,5-a]pyrimidine]
- EC50: 50 nM
- Emax: 101%

Structure (SMILES): CC(C)c1cc2ncc(C#Cc3ccccc3)cn2n1 [Example 38, 2-Isopropyl-6-phenylethynyl-pyrazolo[1,5-a]pyrimidine]
- EC50: 18 nM
- Emax: 53%

Structure (SMILES): CC(C)(C)c1cc2ncc(C#Cc3cc(F)ccc3F)cn2n1 [Example 37, 2-tert-Butyl-6-(2,5-difluoro-phenylethynyl)-pyrazolo[1,5-a]pyrimidine]
- EC50: 39 nM
- Emax: 65%

Structure (SMILES): Cc1cc2ncc(C#Cc3cccc(F)c3)cn2n1 [Example 4, 6-(3-Fluoro-phenylethynyl)-2-methyl-pyrazolo[1,5-a]pyrimidine]
- EC50: 42 nM
- Emax: 77%

Structure (SMILES): C(#Cc1ccc2ncnn2c1)c1ccccc1 [Example 31, 6-Phenylethynyl-[1,2,4]triazolo[1,5-a]pyridine]
- EC50: 274 nM
- Emax: 123%

Source: patent US8933094B2, “Ethynyl compounds useful for treatment of CNS disorder” (Hoffmann-La Roche Inc., priority 2009, dated 2015)
